Source: ChEMBL document CHEMBL5385919, “A Survey of Recently Discovered Naturally Occurring Organohalogen Compounds” (J Nat Prod, 2024)
pIC50: −log10 of the molar value. In brackets after ≈: the same amount, converted by molar mass. Numbered stars: 1 amine (or outer) side, 2 acyl side, 3 side chain; on linkers, the order of the positions; unused ones are H or OH. Square brackets hold non-standard residues; d marks the D form. Peptide text beside a SMILES is read from it. X1 = CC(C)(O)/C=C/[C@]12C[C@@H](C(=O)[*:2])N([*:1])[C@@H]1Nc1ccc(Br)cc12

Columns and labels:
Staphylococcus aureus [1] = assay: Antibacterial activity against Staphylococcus aureus assessed as reduction in bacterial growth; format: functional
Nannizzia gypsea = assay: Antifungal activity against Microsporum gypseum assessed as reduction in fungal growth; format: functional
Micrococcus luteus = assay: Antimicrobial activity against Micrococcus luteus assessed as bacterial growth inhibition; format: functional
Bacillus subtilis [2] = assay: Antibacterial activity against Bacillus subtilis assessed as reduction in bacterial growth; format: functional
ACHN = assay: Growth inhibition of human ACHN cells assessed as cell viability incubated for 48 hrs by SRB assay; format: functional; settings: pooled result: one value given for 6 cell lines, strains, targets or settings
RAW264.7 = assay: Inhibition of LPS-induced NO production in mouse RAW264.7 cells; format: functional, cell-based
HL-60 [3] = assay: Cytotoxicity against human HL-60 cells assessed as inhibition of cell growth; format: functional, cell-based
KB = assay: Cytotoxicity against human KB cells assessed as inhibition of cell growth incubated for 48 hrs by MTT assay; format: functional, cell-based
MCF7 = assay: Cytotoxicity against human MCF7 cells assessed as inhibition of cell growth incubated for 48 hrs by MTT assay; format: functional, cell-based; settings: MCF7, 48 h
HL-60 [4] = assay: Cytotoxicity against human HL-60 cells assessed as inhibition of cell growth incubated for 48 hrs by MTT assay; format: functional, cell-based; settings: HL-60, 48 h
MGC-803 = assay: Cytotoxicity against human MGC-803 cells assessed as inhibition of cell growth incubated for 48 hrs by MTT assay; format: functional, cell-based; settings: MGC-803, 48 h
Bacillus subtilis [5] = assay: Antibacterial activity against Bacillus subtilis ATCC 6633 assessed as reduction in bacterial growth; format: functional
Staphylococcus aureus [6] = assay: Antibacterial activity against Staphylococcus aureus FDA 209P JC-1 assessed as reduction in bacterial growth; format: functional
Kocuria rhizophila = assay: Antibacterial activity against Kocuria rhizophila KCTC 1915 assessed as reduction in bacterial growth incubated for 24 hrs by Mueller-Hinton broth based assay; format: functional
Bacillus subtilis [7] = assay: Antibacterial activity against Bacillus subtilis KCTC 1021 assessed as reduction in bacterial growth incubated for 24 hrs by Mueller-Hinton broth based assay; format: functional
Staphylococcus aureus [8] = assay: Antibacterial activity against Staphylococcus aureus KCTC 1927 assessed as reduction in bacterial growth incubated for 24 hrs by Mueller-Hinton broth based assay; format: functional
[9] = tested on: Trypanosoma brucei rhodesiense; assay: Antitrypanosomal activity against Trypanosoma brucei rhodesiense IL-1501 assessed as inhibition of cell growth incubated for 69 hrs by AlamarBlue assay; format: functional, organism-based
Escherichia coli = assay: Antibacterial activity against Escherichia coli assessed as reduction in bacterial growth; format: functional
MH60 = assay: Cytotoxicity in mouse MH60 cells assessed as inhibition of cell growth; format: functional, cell-based
MDA-MB-231 = assay: Growth inhibition of human MDA-MB-231 cells assessed inhibition of cell growth; format: functional
Staphylococcus aureus [10] = assay: Antibacterial activity against methicillin resistant Staphylococcus aureus assessed as reduction in bacterial growth; format: functional, organism-based
MOLT-4 = assay: Cytotoxicity against human MOLT-4 cells assessed as inhibition of cell growth incubated for 24 hrs by MTT assay; format: functional, cell-based; settings: MOLT-4, 24 h
[11] = tested on: Mycolicibacterium smegmatis; assay: Antibacterial activity against Mycolicibacterium smegmatis assessed as reduction in bacterial growth; format: functional
Candida albicans = assay: Antifungal activity against Candida albicans assessed as reduction in […] growth; format: functional
Bacillus mycoides = assay: Antibacterial activity against Bacillus mycoides assessed as reduction in bacterial growth; format: functional
HepG2 = assay: Cytotoxicity against human HepG2 cells assessed as inhibition of cell growth; format: functional, cell-based
Bacillus cereus = assay: Antibacterial activity against Bacillus cereus assessed as reduction in bacterial growth; format: functional
[12] = Antioxidant activity assessed as DPPH radical scavenging activity; format: functional

For `C=C(CCC=C(C)C)[C@]1(O)CC[C@@](C)(Cl)[C@H](Br)C1`, the MIC (Staphylococcus aureus [1]) was 15.4 µg/mL and the MIC (Nannizzia gypsea) was 8 µg/mL (≈ 23.8 µM).
`CC(C)Cc1c(O)cc2oc3cc(Cl)cn3c(=O)c2c1O` gave an MIC (Staphylococcus aureus [1]) of 0.7 µM, an MIC (Micrococcus luteus) of 0.7 µM (≈ 0.215 µg/mL) and an MIC (Bacillus subtilis [2]) of 0.7 µM (≈ 0.215 µg/mL). For the same compound, the GI50 (ACHN) was 4.9 µM.
Compound `CC(=O)/C=C/C1=CC[C@H]2[C@@H](C[C@@H]1C)OC(=O)[C@]2(O)CCl` has a pIC50 (RAW264.7) of 4.80.
`CC(C)[C@@]1(O)/C=C/[C@](C)(O)CC[C@H](Cl)[C@@]2(C)CC[C@H](O2)[C@](C)(O)CC1` gave a pIC50 (HL-60 [3]) of 5.44.
Compound `COc1c(Cl)ccc2c(=O)c3c(O)c4c5c(c3oc12)OCO[C@@H]5Cc1c-4c(O)c2c(=O)[nH]c(C)c(Cl)c2c1O` has an IC50 (KB) of 0.008 µg/mL (≈ 0.014 µM), an IC50 (MCF7) of 0.008 µg/mL (≈ 0.014 µM) and an IC50 (HL-60 [4]) of 0.008 µg/mL (≈ 0.014 µM). For the same compound, the IC50 (MGC-803) was 0.008 µg/mL (≈ 0.014 µM).
Compound `CO[C@H]1C[C@@H](O)[C@H](OC)c2oc3c4c5c(c(O)c3c(=O)c21)-c1c(cc2c(Cl)c(C)[nH]c(=O)c2c1O)C[C@H]5OCO4` has an MIC (Bacillus subtilis [5]) of 0.098 µg/mL (≈ 0.172 µM) and an MIC (Staphylococcus aureus [6]) of 0.049 µg/mL (≈ 0.086 µM).
Compound `CC(C)=C(C/C=C(\C)CC[C@@H](Cl)C(C)(C)Cl)C[C@@]1(O)C(=O)c2cc(O)cc(O)c2C(=O)[C@@]1(C)Cl` has an MIC (Kocuria rhizophila) of 1 µg/mL (≈ 1.88 µM), an MIC (Bacillus subtilis [7]) of 1 µg/mL (≈ 1.88 µM) and an MIC (Staphylococcus aureus [8]) of 1 µg/mL (≈ 1.88 µM).
`Oc1cc(Br)cc(Br)c1Oc1cc(Br)c(Br)c(Br)c1Oc1ccc(Br)cc1Br` gave a pIC50 [9] of 5.92.
`O=C(O)c1cn(C2CC2)c2cc(N3CCNCC3)c(F)cc2c1=O` [CIPROFLOXACIN] gave an MIC (Escherichia coli) of 0.025 µM (≈ 0.00828 µg/mL).
For `Oc1cc(Br)cc(Br)c1Oc1cc(Br)c(Br)c(Br)c1Oc1ccc(Br)cc1I`, the pIC50 [9] was 6.15.
`CC(C)=CCC1OC1(C)C1(O)C(O)C(=O)CC[C@]1(O)CCl` (stereo partly drawn) showed a pIC50 (MH60) of 5.12.
For `O=C1Oc2cc(Br)c(O)c(Br)c2/C1=C/c1cc(Br)c(O)c(Br)c1`, the MIC (Staphylococcus aureus [1]) was 5.2 µM.
Work on `CCCC[C@H]1CCCCC[C@@H](OC)c2cc(O)c(c(O)c2)[C@@H](CCCC)CCC[C@@H](Cl)C[C@@H](OC)c2cc(O)c1c(O)c2` yielded a GI50 (MDA-MB-231) of 0.72 µM.
Work on `CC[C@H](C)[C@H]1O[C@H](CC(C)=O)O[C@@]1(C)/C=C/C1=CC2=C(Cl)C(=O)[C@](C)(O)[C@H](OC(C)=O)[C@H]2CO1` yielded an MIC (Staphylococcus aureus [10]) of 25 µg/mL (≈ 50.3 µM).
`CC(C)C[C@@H]1NC(=O)[C@@H]2C[C@]3(/C=C/C(C)(C)O)c4cc(Br)ccc4N[C@H]3N2C(=O)[C@@H]2CCCN2C(=O)[C@H](C(C)C)NC(=O)[C@@H]2CCCN2C(=O)[C@H](CC(C)C)NC(=O)[C@@H]2CCCN2C(=O)[C@H](CC(C)C)NC(=O)[C@@H]2CCCN2C(=O)[C@H](Cc2ccccc2)NC1=O` (cyclo(FPLPLPVP[X1]L)) gave a pIC50 (MOLT-4) of 5.33.
Compound `COc1ccc2[nH]c3c(O)cccc3c2c1Cl` has an MIC [11] of 32 µg/mL (≈ 129 µM), an MIC (Staphylococcus aureus [10]) of 32 µg/mL (≈ 129 µM) and an MIC (Candida albicans) of 32 µg/mL (≈ 129 µM). The MIC (Bacillus mycoides) was 32 µg/mL (≈ 129 µM).
In the case of `CCCC[C@H]1CCCCC[C@@H](O)c2cc(O)c(c(O)c2)[C@@H](CCCC)CCC[C@@H](Cl)C[C@@H](OC)c2cc(O)c1c(O)c2`, the GI50 (MDA-MB-231) was 0.72 µM.
`CCCCC[C@H]1CCC[C@@H](Cl)C[C@@H](OC)c2cc(O)c(c(O[C@@H]3OC[C@@H](O)[C@H](O)[C@H]3O)c2)[C@@H](CCCC)CCC[C@@H](Cl)C[C@@H](OC)c2cc(O)c1c(O)c2` showed a GI50 (MDA-MB-231) of 0.72 µM.
Compound `CC(C)/C1=C/[C@H](O)[C@](C)(O)CC[C@H](Cl)[C@@]2(C)CC[C@H](O2)[C@](C)(O)CC1` has a pIC50 (HL-60 [3]) of 5.44.
Work on `CCCC[C@@H](Cl)CCC[C@@H](Cl)C[C@@H](OC)c1cc(O)c([C@@H](CCCC)CCC[C@@H](Cl)C[C@@H](OC)c2cc(O)cc(O)c2)c(O)c1` yielded a GI50 (MDA-MB-231) of 0.72 µM.
In the case of `O=C1NC[C@H](c2cc(Br)c(OC[C@H](O)CNC(=O)/C(Cc3cc(Br)c(O)c(Br)c3O)=N\O)c(Br)c2)O1`, the MIC (Staphylococcus aureus [1]) was 5.2 µM.
`C=C1C[C@H](O)[C@H](Br)C(C)(C)[C@]12CC=C(COC)CC2` showed a pIC50 (HepG2) of 5.39.
`C/C=C(\C)c1c(Cl)c(O)c(C)c2c1Oc1c(C)c(O)c(Cl)c(/C(C)=C/C)c1C(=O)O2` showed an MIC (Staphylococcus aureus [1]) of 1.56 µg/mL and an MIC (Bacillus cereus) of 1.56 µg/mL (≈ 3.47 µM).
`O=Cc1cc(Br)c(O)c(O)c1Cc1ccc(O)c(Br)c1` showed a pIC50 [12] of 5.46.
